The nature of series [1]: PET/CT in vivo distribution of radioactivity after IV, IB or intra-arterial administration in swine. On the set-up: species or system domestic swine (Sus scrofa domesticus). The method, then: Animals were heparinzed to an ACT of 300 seconds or greater and were started with deferoxamine IV infusion (5 mg/kg/hr) to chelate any free ^89Zr that may potentially be released from fragmented cells. PET scans were performed using a Gemini TF clinical PET/CT scanner (Philips Medical Systems, Andover, Mass.). Following injection, animals were imaged in 3-dimensional (3D) time-of-flight mode with a spatial resolution of 4.8 mm at the center of the field of view. The images were reconstructed using the default row-action maximum-likelihood algorithm iterative reconstruction, with standard corrections for random, scatter, attenuation, and normalization. Three volumes of interest (VOI) were manually drawn within the swine PET/CT scans. One VOI enclosing the intra-pelvic bone volume near the injection site, another VOI enclosing the extra-pelvic bone volume and the last VOI for the lung volume. The sum of measured activities of the three volumes equals the total injected radioactivity into the swine. Thus, the percent-injected dose (% ID) within each VOI was estimated by dividing each VOI by the sum of the three VOIs and multiplying by 100. The percent-injected dose for each of the three regions is reported herein.

A short description of series [2]: CT imaging of IB contrast injection (marrow flow, venous drainage, leakage). In kind it is in vivo, domestic swine (Sus scrofa domesticus). The method, then:
To evaluate flow through the bone marrow cavity, abdominal vessels were identified using iopamidol-370 contrast injected into the distal abdominal aorta via a 5Fr Glidecath (Terumo Medical Corporation, Somerset, N.J.) inserted in the internal carotid artery. To evaluate the anatomy of the veins, iopamidol-370 contrast was injected IB under anesthesia (boluses of 5 or 10 ml at rates of 0.1 to 2.5 ml/s) while scanning with 320-row detector CT (Aquilion ONE™, Toshiba Medical, Japan). Pulmonary artery, carotid artery and intra-marrow pressures were monitored and recorded continuously both during and after injection of contrast media. In select animals, vascular occluders (In Vivo Metric, Healdsburg, Calif.) were placed around the terminal branches of the abdominal aorta to selectively control flow through the internal or external iliac arteries, and around the iliac veins to control venous drainage from the pelvis. […]
To evaluate flow through the marrow and venous drainage, direct intra-bone injection into the hemipelvis with iopamidol-370 contrast was performed under anesthesia with dynamic CT images acquired using a 320-detector row scanner (Aquilion One, Toshiba Medical, Japan). Human CD34+ and swine BM MNCs were labeled with Zirconium-89 (^89Zr), and were then assessed for viability, cell number, and the level of cellular radioactivity.

Where [3] appears, read: Control group, IB injection without cells, pig 32590, after the first hour.

For ^89Zr-deferoxamine [^89Zr-Df], in series [1] (setting [3]), the “Extra-pelvic bone VOI (Max)” value is 91.45, the “Extra-pelvic bone VOI (Mean)” value is recorded as 15.32, the “Intra-pelvic bone % ID” value is 33.5 % ID and the “Intra-pelvic bone VOI (Max)” value is recorded as 338.9. Also, in series [1] (setting [3]), the “Intra-pelvic bone VOI (Mean)” value came out at 314.42, the “Intra-pelvic bone total radioactivity” value is 1085.85 counts, the “Lung % ID” value is on record as 0.0% ID and the “Lung VOI (Mean)” value worked out at 0. Moreover, the Lung total radioactivity in series [1] (setting [3]) worked out at 0 counts. Further, in series [1] (Control group, IB injection without cells, pig 32590, after the first hour, listed as 89Zr—Df), the “Intra-pelvic bone % ID” value was found to be 33.5% ID. Further, in series [1] (IB injection without cells, 1 hr), the “Location of radioactivity, fusion PET/CT” value is “radioactivity in the renal pelvises and bladder”. In addition, the “Radioactivity within the renal collecting system, ureters and bladder” value in series [1] (IB injection without cells, first hour) was found to be 66.5 % ID. Also, the Excretion of radioactivity entry in series [1] (IV injection without cells) is “rapid renal excretion”. The “Retention in the lungs” value in series [1] (IV or IB administration without cells, first hour) is listed as “no retention”.

With `C[C@H](O)C(=O)Nc1c(I)c(C(=O)NC(CO)CO)c(I)c(C(=O)NC(CO)CO)c1I` [iopamidol-370 contrast, iopamidol-370], the “Contrast distribution on CT” value in series [2] (IB injection at rates exceeding 0.2 ml/s, volumes >10 ml, or by hand) is given as “extrabone contrast leakage at the site of injection”. Besides, the “Contrast distribution on dynamic CT” value in series [2] (manual sequential hand intra-bone injection of 5 ml aliquots at two sites in the ipsilateral iliac crest) is “leakage from the initial access site after the first injection as well as immediate drainage into the ipsilateral iliac vein”.
